# Measured values from ChEMBL document CHEMBL6078670, “Discovery of a potent and selective TRPC3 antagonist with neuroprotective effects” (Bioorg Med Chem, 2025).
# Calls of active or inactive are those of the source. No cut-off for these calls is given here.
# Tests used:
# [1] = target: T1, Short transient receptor potential channel 7 (Homo sapiens) (UniProt Q9HCX4); assay: Antagonist activity at human TRPC7 expressed in HEK293 cells assessed as inhibition of carbachol-induced activity at 10 uM measured after 48 hrs by Whole-cell patch clamp electrophysiology; type: cell-based
# T1 sequence (whole entry): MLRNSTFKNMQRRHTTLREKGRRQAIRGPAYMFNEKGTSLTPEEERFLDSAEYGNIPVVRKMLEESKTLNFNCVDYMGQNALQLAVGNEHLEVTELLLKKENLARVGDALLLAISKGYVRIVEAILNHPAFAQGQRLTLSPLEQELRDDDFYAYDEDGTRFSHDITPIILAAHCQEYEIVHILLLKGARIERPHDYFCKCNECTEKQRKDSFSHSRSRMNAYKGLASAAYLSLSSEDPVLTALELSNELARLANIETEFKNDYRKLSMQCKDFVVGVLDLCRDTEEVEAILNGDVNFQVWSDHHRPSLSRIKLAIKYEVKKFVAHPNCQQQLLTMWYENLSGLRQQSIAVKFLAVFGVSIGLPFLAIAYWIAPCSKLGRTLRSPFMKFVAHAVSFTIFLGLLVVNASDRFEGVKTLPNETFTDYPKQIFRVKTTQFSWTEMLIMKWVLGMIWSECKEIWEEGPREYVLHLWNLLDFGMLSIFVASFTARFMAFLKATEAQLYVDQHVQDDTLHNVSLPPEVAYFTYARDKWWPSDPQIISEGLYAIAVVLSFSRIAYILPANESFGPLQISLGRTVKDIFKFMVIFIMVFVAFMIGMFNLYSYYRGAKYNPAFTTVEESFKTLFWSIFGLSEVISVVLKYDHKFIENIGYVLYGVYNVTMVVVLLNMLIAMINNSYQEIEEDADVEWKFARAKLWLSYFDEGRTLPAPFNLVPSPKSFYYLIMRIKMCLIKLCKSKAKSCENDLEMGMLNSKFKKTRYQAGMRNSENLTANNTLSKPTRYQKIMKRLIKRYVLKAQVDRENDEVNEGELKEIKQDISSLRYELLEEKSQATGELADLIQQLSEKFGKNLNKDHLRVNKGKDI
# [2] = target: Short transient receptor potential channel 1 (Mus musculus) (UniProt Q61056); assay: Antagonist activity at mouse TRPC1 expressed in HEK293 cells assessed as inhibition of carbachol-induced activity at 10 uM measured after 48 hrs by Whole-cell patch clamp electrophysiology; type: cell-based
# [3] = target: T2, Short transient receptor potential channel 3 (Homo sapiens) (UniProt Q13507); assay: Antagonist activity at human TRPC3 expressed in HEK293 cells assessed as inhibition of carbachol-induced activity at 10 uM measured after 48 hrs by Whole-cell patch clamp electrophysiology relative to control; type: cell-based; conditions: filed as antagonist
# T2 sequence (whole entry): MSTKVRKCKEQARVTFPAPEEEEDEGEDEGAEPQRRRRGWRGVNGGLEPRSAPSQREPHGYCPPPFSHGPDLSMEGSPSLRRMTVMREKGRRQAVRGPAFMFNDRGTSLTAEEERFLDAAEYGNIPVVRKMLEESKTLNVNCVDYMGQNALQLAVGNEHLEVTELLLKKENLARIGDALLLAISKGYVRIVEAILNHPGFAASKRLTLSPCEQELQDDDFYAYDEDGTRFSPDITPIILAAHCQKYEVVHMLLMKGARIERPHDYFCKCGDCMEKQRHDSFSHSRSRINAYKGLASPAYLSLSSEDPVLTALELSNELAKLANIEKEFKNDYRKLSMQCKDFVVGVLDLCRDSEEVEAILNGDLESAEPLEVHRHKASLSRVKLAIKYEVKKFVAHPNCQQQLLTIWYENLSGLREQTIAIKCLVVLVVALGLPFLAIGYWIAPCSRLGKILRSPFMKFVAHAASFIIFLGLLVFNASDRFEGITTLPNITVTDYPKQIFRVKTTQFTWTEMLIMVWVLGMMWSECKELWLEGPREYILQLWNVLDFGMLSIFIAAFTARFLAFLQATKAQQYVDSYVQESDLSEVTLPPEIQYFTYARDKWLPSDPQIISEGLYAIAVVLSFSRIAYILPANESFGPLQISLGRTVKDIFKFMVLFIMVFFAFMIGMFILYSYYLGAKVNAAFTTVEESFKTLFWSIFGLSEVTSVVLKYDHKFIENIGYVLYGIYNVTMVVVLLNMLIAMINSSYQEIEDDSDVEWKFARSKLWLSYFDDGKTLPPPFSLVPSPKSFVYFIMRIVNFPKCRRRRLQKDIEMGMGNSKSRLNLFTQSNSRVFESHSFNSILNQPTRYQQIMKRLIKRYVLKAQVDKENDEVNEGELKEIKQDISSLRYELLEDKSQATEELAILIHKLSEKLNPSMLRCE
# [4] = Metabolic stability in human liver microsomes assessed as intrinsic clearance measured up to 60 mins by LC-MS/MS analysis; type: ADME, Microsome; conditions: 1 h
# Chain of Short transient receptor potential channel 1 (Mus musculus) (Q61056 whole entry): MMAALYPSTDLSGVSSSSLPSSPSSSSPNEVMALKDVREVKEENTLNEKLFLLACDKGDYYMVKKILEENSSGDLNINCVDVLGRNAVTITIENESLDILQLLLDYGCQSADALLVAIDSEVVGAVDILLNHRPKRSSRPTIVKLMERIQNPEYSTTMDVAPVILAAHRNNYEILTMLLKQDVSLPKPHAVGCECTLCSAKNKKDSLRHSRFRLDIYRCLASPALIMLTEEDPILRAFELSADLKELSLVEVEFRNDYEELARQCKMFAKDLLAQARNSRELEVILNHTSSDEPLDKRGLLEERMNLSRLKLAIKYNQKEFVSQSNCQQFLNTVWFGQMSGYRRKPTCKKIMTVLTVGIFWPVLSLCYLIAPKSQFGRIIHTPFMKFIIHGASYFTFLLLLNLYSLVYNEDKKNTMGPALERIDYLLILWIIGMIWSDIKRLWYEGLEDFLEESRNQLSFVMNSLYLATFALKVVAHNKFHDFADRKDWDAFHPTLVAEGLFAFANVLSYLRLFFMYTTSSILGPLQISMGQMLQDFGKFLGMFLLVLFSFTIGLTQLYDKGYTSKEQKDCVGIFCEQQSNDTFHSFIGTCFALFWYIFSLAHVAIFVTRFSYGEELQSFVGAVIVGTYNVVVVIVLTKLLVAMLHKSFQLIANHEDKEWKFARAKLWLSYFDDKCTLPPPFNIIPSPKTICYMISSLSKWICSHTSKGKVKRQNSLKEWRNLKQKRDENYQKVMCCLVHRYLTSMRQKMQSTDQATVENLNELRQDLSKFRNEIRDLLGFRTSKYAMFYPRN
smiles,measurement,setting,value
CCNCc1cnn(-c2ccc(-n3ccc(Cl)c(Cl)c3=O)cc2)c1C(F)(F)F,Activity,[1],inactive
same,Activity,[2],inactive
same,inhibition,[3],> 97%
same,CLH,[4],3.73 µL/min/mg
